# From ChEMBL document CHEMBL3621140, “Sulfonamide derivatives containing dihydropyrazole moieties selectively and potently inhibit MMP-2/MMP-9: Design, synthesis, inhibitory activity and 3D-QSAR analysis” (Bioorg Med Chem Lett, 2015)
# Key:
# HepG2 = assay: Antiproliferative activity against human HepG2 cells incubated for 48 hrs by MTT assay; type: functional, cell-based; details: HepG2, 48 h
# [1] = Cytotoxicity against HEK293T cells incubated for 48 hrs by MTT assay; type: cell-based, HEK-293T; details: human
# [2] = molecular target: Matrix metalloproteinase-9 (Homo sapiens, UniProt P14780); assay: Inhibition of APMA-activated human recombinant MMP9 incubated for 5 mins using 4-nitrophenylacetate substrate by esterase assay
# Matrix metalloproteinase-9, sequence (P14780 whole entry): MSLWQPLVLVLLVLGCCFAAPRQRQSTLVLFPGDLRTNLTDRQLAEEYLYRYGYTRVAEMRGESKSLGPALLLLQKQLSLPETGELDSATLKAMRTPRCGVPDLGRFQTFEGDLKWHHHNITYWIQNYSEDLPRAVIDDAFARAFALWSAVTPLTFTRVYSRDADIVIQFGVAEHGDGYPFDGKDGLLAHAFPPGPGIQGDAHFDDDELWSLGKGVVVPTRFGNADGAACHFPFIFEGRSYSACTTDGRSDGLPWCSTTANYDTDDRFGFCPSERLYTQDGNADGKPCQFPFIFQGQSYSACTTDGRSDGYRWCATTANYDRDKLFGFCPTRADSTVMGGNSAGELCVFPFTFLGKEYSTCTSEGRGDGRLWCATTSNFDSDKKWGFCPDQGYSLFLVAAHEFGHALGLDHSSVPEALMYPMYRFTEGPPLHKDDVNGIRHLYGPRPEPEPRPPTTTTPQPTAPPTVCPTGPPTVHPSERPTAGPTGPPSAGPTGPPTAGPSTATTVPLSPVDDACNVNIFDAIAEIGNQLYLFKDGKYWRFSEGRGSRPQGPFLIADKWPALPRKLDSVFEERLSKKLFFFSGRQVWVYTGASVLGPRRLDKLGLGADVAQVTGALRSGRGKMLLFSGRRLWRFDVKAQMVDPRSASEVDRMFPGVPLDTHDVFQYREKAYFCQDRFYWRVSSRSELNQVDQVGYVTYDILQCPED
# HeLa = assay: Antiproliferative activity against human HeLa cells incubated for 48 hrs by MTT assay; type: functional, cell-based
# [3] = molecular target: 72 kDa type IV collagenase (Homo sapiens, UniProt P08253); assay: Inhibition of APMA-activated human recombinant MMP2 incubated for 5 mins using 4-nitrophenylacetate substrate by esterase assay
# 72 kDa type IV collagenase, sequence (P08253 whole entry): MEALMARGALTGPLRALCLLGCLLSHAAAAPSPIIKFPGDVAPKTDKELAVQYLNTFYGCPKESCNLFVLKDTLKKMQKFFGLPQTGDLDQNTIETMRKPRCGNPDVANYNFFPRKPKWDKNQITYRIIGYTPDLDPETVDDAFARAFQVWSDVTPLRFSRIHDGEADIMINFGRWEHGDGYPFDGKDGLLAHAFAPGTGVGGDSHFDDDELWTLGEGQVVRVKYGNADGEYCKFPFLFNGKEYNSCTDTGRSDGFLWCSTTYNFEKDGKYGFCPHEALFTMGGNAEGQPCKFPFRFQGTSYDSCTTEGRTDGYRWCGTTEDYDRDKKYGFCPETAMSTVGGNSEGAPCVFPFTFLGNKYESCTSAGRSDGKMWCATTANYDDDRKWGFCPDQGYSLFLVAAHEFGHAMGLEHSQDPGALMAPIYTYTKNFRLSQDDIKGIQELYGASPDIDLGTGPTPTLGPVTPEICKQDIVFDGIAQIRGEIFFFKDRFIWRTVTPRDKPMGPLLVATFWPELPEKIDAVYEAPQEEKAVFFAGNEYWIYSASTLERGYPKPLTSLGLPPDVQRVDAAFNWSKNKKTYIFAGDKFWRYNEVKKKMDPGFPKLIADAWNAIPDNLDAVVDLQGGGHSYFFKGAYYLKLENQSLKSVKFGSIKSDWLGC
# A549 = assay: cells; details: Homo sapiens, A549, 48 h
# MCF7 = assay: Antiproliferative activity against human MCF7 cells incubated for 48 hrs by MTT assay; type: functional, cell-based; details: MCF7, 48 h
Structure (SMILES),IC50 (HepG2) [µM],CC50 at 48 h [1] [µM],IC50 [2] [µM],IC50 (HeLa) [µM],IC50 ([3]; read-out: IC50) [µM],IC50 (A549) [µM],IC50 (MCF7) [µM],IC50 ([3]; read-out: pIC50 (converted)) [µM]
COc1cccc(C2=NN(c3ccc(S(N)(=O)=O)cc3)C(c3ccc4ccccc4c3)C2)c1 (centres undefined),26,49.4,4.68,36.5,2.15,8.67,13.6,–
Cc1ccccc1C1=NN(c2ccc(S(N)(=O)=O)cc2)C(c2cccc3ccccc23)C1 (centres undefined),5.38,51.2,5.43,6.37,2.91,2.84,10,–
NS(=O)(=O)c1ccc(N2N=C(c3cccc(Br)c3)CC2c2ccc3ccccc3c2)cc1 (centres undefined),29,47,13.9,23.7,17.8,10.3,9.15,–
NS(=O)(=O)c1ccc(N2N=C(c3ccc(Cl)cc3)CC2c2ccc3ccccc3c2)cc1 (centres undefined),25,54.8,5.88,19.2,3.6,2.76,12.4,–
NS(=O)(=O)c1ccc(N2N=C(c3ccc(Cl)cc3)CC2c2cccc3ccccc23)cc1 (centres undefined),16.4,49.2,5.47,11.5,2.7,2.98,18,–
NS(=O)(=O)c1ccc(N2N=C(c3ccccc3Cl)CC2c2cccc3ccccc23)cc1 (centres undefined),10,53.1,12,29.1,8.63,7.38,23.6,8.51
NS(=O)(=O)c1ccc(N2N=C(c3cccc(I)c3)CC2c2ccc3ccccc3c2)cc1 (centres undefined),18.1,55.9,6.91,32,15.7,12,11.1,–
Cc1ccc(C2=NN(c3ccc(S(N)(=O)=O)cc3)C(c3ccc4ccccc4c3)C2)cc1 (centres undefined),8.32,53.1,4.95,17.6,2.81,6.9,18.2,–
NS(=O)(=O)c1ccc(N2N=C(c3ccc(F)cc3)CC2c2ccc3ccccc3c2)cc1 (centres undefined),20.7,49.5,19.8,26.1,16.8,6.95,12.3,–
Cc1cccc(C2=NN(c3ccc(S(N)(=O)=O)cc3)C(c3cccc4ccccc34)C2)c1 (centres undefined),5.83,48.2,4.29,9.87,3.24,3.14,8.63,–
NS(=O)(=O)c1ccc(N2N=C(c3ccccc3)CC2c2cccc3ccccc23)cc1 (centres undefined),19.1,51.4,10.9,20.2,7.92,12.9,22.6,–
C[C@@]1(O)c2cccc(O)c2C(=O)C2=C(O)[C@]3(O)C(=O)C(C(N)=O)=C(O)C[C@@H]3C[C@@H]21,–,–,2.52,–,1.26,–,–,–
COc1ccc(C2=NN(c3ccc(S(N)(=O)=O)cc3)C(c3cccc4ccccc34)C2)cc1 (centres undefined),27.8,47.1,8.61,30.1,4.27,6.51,26.4,4.17
NS(=O)(=O)c1ccc(N2N=C(c3cccc(Br)c3)CC2c2cccc3ccccc23)cc1 (centres undefined),14.9,42.2,7.97,28.8,11.4,8.19,28.8,11.2
Cc1ccc(C2=NN(c3ccc(S(N)(=O)=O)cc3)C(c3cccc4ccccc34)C2)cc1 (centres undefined),7.04,51.3,16,8.61,6.81,7.77,9.89,–
COc1cccc(C2=NN(c3ccc(S(N)(=O)=O)cc3)C(c3cccc4ccccc34)C2)c1 (centres undefined),36.4,45.3,6.72,30.6,4.83,5.82,26.1,–
NS(=O)(=O)c1ccc(N2N=C(c3cccc(I)c3)CC2c2cccc3ccccc23)cc1 (centres undefined),8.06,46.9,12.9,26,9.43,6.83,18.1,–
CCOc1ccc(C2=NN(c3ccc(S(N)(=O)=O)cc3)C(c3cccc4ccccc34)C2)cc1 (centres undefined),8.66,59.5,3.19,18.5,0.81,3.33,35.1,–
Cc1cccc(C2=NN(c3ccc(S(N)(=O)=O)cc3)C(c3ccc4ccccc4c3)C2)c1 (centres undefined),7.68,52.4,5.92,26.4,3.86,7.64,11.1,–
COc1cc2ncnc(Nc3ccc(F)c(Cl)c3)c2cc1OCCCN1CCOCC1 [GEFITINIB],–,–,–,–,–,2.86,–,–
CCOc1ccc(C2=NN(c3ccc(S(N)(=O)=O)cc3)C(c3ccc4ccccc4c3)C2)cc1 (centres undefined),9.17,53.8,18.3,35.4,14.9,17.8,38.2,–
NS(=O)(=O)c1ccc(N2N=C(c3ccccc3Cl)CC2c2ccc3ccccc3c2)cc1 (centres undefined),31.1,49.9,8.72,16.4,14.8,2.16,8.64,–
NS(=O)(=O)c1ccc(N2N=C(c3ccccc3)CC2c2ccc3ccccc3c2)cc1 (centres undefined),17.9,50.5,33.8,13,12.6,8.42,21.6,–
Cc1ccc(-c2cc(C(F)(F)F)nn2-c2ccc(S(N)(=O)=O)cc2)cc1 [CELECOXIB],0.76,54.4,–,7.55,–,2.15,6.88,–
NS(=O)(=O)c1ccc(N2N=C(c3cccc(F)c3)CC2c2ccc3ccccc3c2)cc1 (centres undefined),24.8,49,5.96,21.1,23.8,7.83,13.1,–
Cc1ccccc1C1=NN(c2ccc(S(N)(=O)=O)cc2)C(c2ccc3ccccc3c2)C1 (centres undefined),6.88,51.7,7.91,15.6,11.4,6.84,16.3,–
COc1ccc(C2=NN(c3ccc(S(N)(=O)=O)cc3)C(c3ccc4ccccc4c3)C2)cc1 (centres undefined),22.3,45.4,19,35.4,9.9,9.31,50.6,–
